Experimental findings from patent US9394297B2, “Amides as pim inhibitors” (AMGEN INC., priority 2012, dated 2016) are described below.

Broadly, the IC50 is the concentration that gives 50% inhibition.

In assay [1] the target is Pim-1 (Homo sapiens (Human), UniProt P11309). Description: Pim enzyme assay (HTRF, 96-well), Pim-1. The assay is classed as biochemical. As to conditions: full length recombinant Pim-1, biotinylated-BAD (S112) peptide, 10-point curve, 2 h RT, read-out: Pim-1 IC50 IP. The method in brief:
(§1)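 HTRF detection of biotinylated BAD (S112) phosphorylation by full-length recombinant His-tagged Pim-1 or Pim-2 in 60 mM Hepes pH 7.0, 0.05% BSA, 2 mM DTT at 22 °C: 2 h for Pim-1, 45 min for Pim-2. Stopped with EDTA; IC50 from 4-parameter logistic fit of percent of control.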
A general note: TR-FRET usually uses a lanthanide donor and a delayed reading to cut background.

The target in assay [2] is Pim-2 (Homo sapiens (Human), UniProt Q9P1W9). Description: Pim enzyme assay (HTRF, 96-well), Pim-2. The format is biochemical. As to conditions: full length recombinant Pim-2, biotinylated-BAD (S112) peptide, 10-point curve, 45 min RT, read-out: Pim-2 IC50 IP. The essentials: as §1
Assay [3] has as its system KMS-12-BM myeloma cell line. Description: Pim KMS-12 cell assay (phospho-BAD S112 / total BAD, MSD). The settings on record: Homo sapiens, KMS-12-BM.
[4] abbreviates: read-out: KMS-12-BM IC50 IP, KMS-12-BM cells, phospho-BAD (S112) vs total BAD, 1 hour 50 min with compound.

Like-named read-outs stand apart in the source and are kept apart here.

Pim-1, sequence (P11309 whole entry): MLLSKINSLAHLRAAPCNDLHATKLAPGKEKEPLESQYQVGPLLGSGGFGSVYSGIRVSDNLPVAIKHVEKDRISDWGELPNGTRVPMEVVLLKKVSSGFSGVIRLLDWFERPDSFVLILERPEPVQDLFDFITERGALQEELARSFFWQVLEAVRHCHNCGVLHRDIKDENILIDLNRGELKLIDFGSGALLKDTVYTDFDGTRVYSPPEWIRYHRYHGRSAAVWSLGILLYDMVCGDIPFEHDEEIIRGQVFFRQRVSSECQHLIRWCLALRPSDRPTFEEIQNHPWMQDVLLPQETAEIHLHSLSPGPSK
Pim-2, sequence (Q9P1W9 whole entry): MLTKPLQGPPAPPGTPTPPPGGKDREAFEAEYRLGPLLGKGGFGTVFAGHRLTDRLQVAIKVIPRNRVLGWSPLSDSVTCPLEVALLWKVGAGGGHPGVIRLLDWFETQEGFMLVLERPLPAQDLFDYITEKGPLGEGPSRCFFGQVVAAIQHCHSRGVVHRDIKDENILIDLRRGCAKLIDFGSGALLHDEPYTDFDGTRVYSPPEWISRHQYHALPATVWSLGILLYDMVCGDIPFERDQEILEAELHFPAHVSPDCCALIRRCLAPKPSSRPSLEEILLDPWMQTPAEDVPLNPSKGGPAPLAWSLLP

With `O=C1NCCc2[nH]c(-c3cccc4ccc(Nc5ccc(F)cc5F)nc34)cc21` [Example 8, 2-(2-((2,4-difluorophenyl)amino)quinolin-8-yl)-6,7-dihydro-1H-pyrrolo[3,2-c]pyridin-4(5H)-one], the results for the IC50 in assay [1], in assay [2] and in assay [3] (setting [4]) were 2.8 nM, 12.7 nM and 1280 nM, respectively.
In the same order, the values of `O=C1NCCc2[nH]c(-c3cccc4ccc(Oc5c(F)cccc5Cl)nc34)cc21` [Example 9, 2-(2-(2-chloro-6-fluorophenoxy)quinolin-8-yl)-6,7-dihydro-1H-pyrrolo[3,2-c]pyridin-4(5H)-one] are 4.6 nM, 8.6 nM and 6350 nM.
On to `O=C1NCCc2[nH]c(-c3cccc4ccc(Oc5ccc(F)cc5F)nc34)cc21` [Example 10, 2-(2-(2,4-difluorophenoxy)quinolin-8-yl)-6,7-dihydro-1H-pyrrolo[3,2-c]pyridin-4(5H)-one], for which the IC50 came out at 12.1 nM in assay [1], 21.1 nM in assay [2] and 7490 nM in assay [3] (setting [4]).
`O=C1NCCc2[nH]c(-c3cccc4ccc(Oc5ccccc5F)nc34)cc21` [Example 11, 2-(2-(2-fluorophenoxy)quinolin-8-yl)-6,7-dihydro-1H-pyrrolo[3,2-c]pyridin-4(5H)-one]: the concentration for half-maximal inhibition (IC50) in assay [1] stood at 6.1 nM; in assay [2] it was 10.3 nM; in assay [3] (setting [4]), 7000 nM.
In the same order, the values of `CCN(c1ccccc1)c1ccc2cccc(-c3cc4c([nH]3)CCNC4=O)c2n1` [Example 14, 2-(2-(ethyl(phenyl)amino)quinolin-8-yl)-6,7-dihydro-1H-pyrrolo[3,2-c]pyridin-4(5H)-one] are 1.1 nM, 6 nM and 2340 nM.
On to `O=C1NCCc2[nH]c(-c3cccc4ccc(Nc5ccc(Cl)cc5)nc34)cc21` [Example 15, 2-(2-((4-chlorophenyl)amino)quinolin-8-yl)-6,7-dihydro-1H-pyrrolo[3,2-c]pyridin-4(5H)-one], for which the IC50 in assay [1] turned out to be 4 nM; in assay [2], 20.4 nM; in assay [3] (read-out: KMS-12-BM IC50 IP), 3230 nM.
Regarding `O=c1[nH]cnc2[nH]c(-c3cccc4ccc(Nc5ccccc5)nc34)cc12` [Example 16, 6-(2-(phenylamino)quinolin-8-yl)-3H-pyrrolo[2,3-d]pyrimidin-4(7H)-one], the half-maximal inhibitory concentration (IC50) in assay [1] came out at 2.7 nM; in assay [2], 13.5 nM; in assay [3] (read-out: KMS-12-BM IC50 IP), 3850 nM.
Regarding `O=C1NCCc2[nH]c(-c3cccc4ccc(NCc5ccccc5)nc34)cc21` [Example 21, 2-(2-(benzylamino)quinolin-8-yl)-6,7-dihydro-1H-pyrrolo[3,2-c]pyridin-4(5H)-one], the values for the half-inhibitory concentration (IC50) in assay [1], in assay [2] and in assay [3] (setting [4]) were 2.8 nM, 21.6 nM and 4920 nM, respectively.
Take `CCN(c1cccnc1)c1ccc2cccc(-c3cc4c([nH]3)CCNC4=O)c2n1` [Example 32, 2-(2-(ethyl(pyridin-3-yl)amino)quinolin-8-yl)-6,7-dihydro-1H-pyrrolo[3,2-c]pyridin-4(5H)-one]: the results for the IC50 in assay [1], in assay [2] and in assay [3] (setting [4]) were 0.3 nM, 0.6 nM and 1390 nM, respectively.
`O=C1NCCc2[nH]c(-c3cccc4ccc(Oc5ccccc5)nc34)cc21` [Example 37, 2-(2-phenoxyquinolin-8-yl)-6,7-dihydro-1H-pyrrolo[3,2-c]pyridin-4(5H)-one]: the 50% inhibitory concentration (IC50) in assay [1] stood at 5.9 nM; in assay [2], 13.9 nM; in assay [3] (setting [4]), 5530 nM.
For `O=C1NCCc2[nH]c(-c3cccc4ccc(Nc5cccnc5)nc34)cc21` [Example 38, 2-(2-(3-pyridinylamino)-8-quinolinyl)-1,5,6,7-tetrahydro-4H-pyrrolo[3,2-c]pyridin-4-one], the IC50 in assay [1] stood at 0.3 nM; in assay [2], 0.7 nM; in assay [3] (setting [4]), 1290 nM.
Take `O=C1NCCc2[nH]c(-c3cccc4ccc(Oc5cccnc5)nc34)cc21` [Example 39, 2-(2-(3-pyridinyloxy)-8-quinolinyl)-1,5,6,7-tetrahydro-4H-pyrrolo[3,2-c]pyridin-4-one]: the half-inhibitory concentration (IC50) in assay [1] is 6.3 nM; in assay [2], 4.6 nM; in assay [3] (setting [4]), 5380 nM.
Take `O=C1NCCc2[nH]c(-c3cccc4ccc(Oc5cccc(F)c5)nc34)cc21` [Example 42, 2-(2-(3-fluorophenoxy)-8-quinolinyl)-1,5,6,7-tetrahydro-4H-pyrrolo[3,2-c]pyridin-4-one]: the results for the IC50 in assay [1], in assay [2] and in assay [3] (setting [4]) were 3.6 nM, 9.1 nM and 3460 nM, respectively.
With `Cc1cccc(Nc2ccc3cccc(-c4cc5c([nH]4)CCNC5=O)c3n2)c1` [Example 44, 2-(2-((3-methylphenyl)amino)-8-quinolinyl)-1,5,6,7-tetrahydro-4H-pyrrolo[3,2-c]pyridin-4-one], the half-inhibitory concentration (IC50) in assay [1] came to 7.2 nM; in assay [2] it was 29.2 nM; in assay [3] (read-out: KMS-12-BM IC50 IP) it was 13100 nM.
On to `O=C1NCCc2[nH]c(-c3cccc4ccc(Nc5cccc(F)c5)nc34)cc21` [Example 45, 2-(2-((3-fluorophenyl)amino)-8-quinolinyl)-1,5,6,7-tetrahydro-4H-pyrrolo[3,2-c]pyridin-4-one], for which the figures for the IC50 in assay [1], in assay [2] and in assay [3] (setting [4]) were 1.5 nM, 7.7 nM and 1450 nM, respectively.
Consider `O=C1NCCc2[nH]c(-c3cccc4ccc(NC5CCCC5)nc34)cc21` [Example 78, 2-(2-(cyclopentylamino)quinolin-8-yl)-6,7-dihydro-1H-pyrrolo[3,2-c]pyridin-4(5H)-one], for which the results for the IC50 in assay [1], in assay [2] and in assay [3] (setting [4]) were 3.6 nM, 19 nM and 5500 nM, respectively.
The like results for `O=C1NCCc2[nH]c(-c3cccc4ccc(OC5CCCC5)nc34)cc21` [Example 80, 2-(2-(cyclopentyloxy)quinolin-8-yl)-6,7-dihydro-1H-pyrrolo[3,2-c]pyridin-4(5H)-one] were, in that order, 7.4 nM, 30.5 nM and 14400 nM.
With `O=C1NCCc2[nH]c(-c3cccc4ccc(NC5CCCCC5)nc34)cc21` [Example 83, 2-(2-(cyclohexylamino)quinolin-8-yl)-6,7-dihydro-1H-pyrrolo[3,2-c]pyridin-4(5H)-one], the results for the IC50 in assay [1], in assay [2] and in assay [3] (read-out: KMS-12-BM IC50 IP) were 2 nM, 15 nM and 2910 nM, respectively.
Consider `O=C1NCCc2[nH]c(-c3cccc4ccc(N5CCOCC5)nc34)cc21` [Example 84, 2-(2-morpholinoquinolin-8-yl)-6,7-dihydro-1H-pyrrolo[3,2-c]pyridin-4(5H)-one], for which the IC50 is 20.6 nM in assay [1], 115 nM in assay [2] and 12200 nM in assay [3] (setting [4]).
With `O=C1NCCc2[nH]c(-c3cccc4ccc(NC5CCOCC5)nc34)cc21` [Example 85, 2-(2-((Tetrahydro-2H-pyran-4-yl)amino)quinolin-8-yl)-6,7-dihydro-1H-pyrrolo[3,2-c]pyridin-4(5H)-one], the concentration for half-maximal inhibition (IC50) in assay [1] was determined as 4.4 nM; in assay [2], 22.6 nM; in assay [3] (setting [4]), 953 nM.
In the same order, the values of `Nc1ccc(-c2ccc3cccc(-c4cc5c([nH]4)CCNC5=O)c3n2)c(F)n1` [Example 87, 2-(2-(6-amino-2-fluoropyridin-3-yl)quinolin-8-yl)-6,7-dihydro-1H-pyrrolo[3,2-c]pyridin-4(5H)-one] are 3.8 nM, 14.7 nM and 1780 nM.
Regarding `O=C1NCCc2[nH]c(-c3cccc4ccc(O[C@H]5CCCNC5)nc34)cc21` [Example 92, (S)-2-(2-(piperidin-3-yloxy)quinolin-8-yl)-6,7-dihydro-1H-pyrrolo[3,2-c]pyridin-4(5H)-one], the half-inhibitory concentration (IC50) in assay [1] amounted to 16.5 nM; in assay [2], 62 nM; in assay [3] (setting [4]), 12200 nM.
Turning to `Cc1cccc(C)c1Nc1ccc2cccc(-c3cc4c([nH]3)CCNC4=O)c2n1` [Example 102, 2-(2-((2,6-dimethylphenyl)amino)quinolin-8-yl)-6,7-dihydro-1H-pyrrolo[3,2-c]pyridin-4(5H)-one], the half-maximal inhibitory concentration (IC50) in assay [1] was 7.6 nM; in assay [2], 73.9 nM; in assay [3] (read-out: KMS-12-BM IC50 IP) it was 10400 nM.
The like results for `O=C1NCCc2[nH]c(-c3cccc4ccc(Oc5ccccc5Cl)nc34)cc21` [Example 103, 2-(2-(2-chlorophenoxy)quinolin-8-yl)-6,7-dihydro-1H-pyrrolo[3,2-c]pyridin-4(5H)-one] were, in that order, 8.1 nM, 18.1 nM and 7730 nM.
For `Cc1cc2cccc(-c3cc4c([nH]3)CCNC4=O)c2nc1Nc1ccccc1` [Example 105, 2-(3-methyl-2-(phenylamino)quinolin-8-yl)-6,7-dihydro-1H-pyrrolo[3,2-c]pyridin-4(5H)-one], the concentration for half-maximal inhibition (IC50) is 0.8 nM in assay [1], 1.2 nM in assay [2] and 407 nM in assay [3] (setting [4]).
`Cc1cc2cccc(-c3cc4c([nH]3)CCNC4=O)c2nc1Nc1ccc(Br)cc1` [Example 106, 2-(2-((4-bromophenyl)amino)-3-methylquinolin-8-yl)-6,7-dihydro-1H-pyrrolo[3,2-c]pyridin-4(5H)-one]: the 50% inhibitory concentration (IC50) in assay [1] is 4.5 nM; in assay [2], 10.5 nM; in assay [3] (setting [4]), 8440 nM.
In the case of `O=c1[nH]ccc2[nH]c(-c3cccc4ccc(Nc5ccccc5Cl)nc34)cc12` [Example 107, 2-(2-((2-chlorophenyl)amino)quinolin-8-yl)-1H-pyrrolo[3,2-c]pyridin-4(5H)-one], the IC50 in assay [1] came out at 5.2 nM; in assay [2], 32.2 nM; in assay [3] (setting [4]) it was 15600 nM.
